According to patent US9993478B2, “1-pyrazolyl-3-(4-((2-anilinopyrimidin-4-yl) oxy) napththalen-1-yl) ureas as P38 MAP knase inhibitors” (Respivert Ltd., priority 2011, dated 2018):

Test system: d-U937 cells
Test: Cell viability: MTT assay
Assay type: cell-based, human
Details: 1 μg/mL
Procedure: Differentiated U937 cells were pre-incubated with each test compound (final concentration 1 μg/mL or 10 μg/mL in 200 μL media indicated below) under two protocols: the first for 4 hr in 5% FCS RPMI1640 media and the second in 10% FCS RPMI1640 media for 24 h. The supernatant was replaced with new media (200 μL) and MTT stock solution (10 μL, 5 mg/mL) was added to each well. After incubation for 1 hr the media were removed, DMSO (200 μL) was added to each well and the plates were shaken lightly for 1 hr prior to reading the absorbance at 550 nm. The percentage loss of cell viability was calculated for each well relative to vehicle (0.5% DMSO) treatment. Consequently an apparent increase in cell viability for drug treatment relative to vehicle is tabulated as a negative percentage.

SMILES | MTT Assay Cell viability at time point in d-U937 Cells 4 h | MTT Assay Cell viability at time point in d-U937 Cells 24 h
COc1ccc(Nc2nccc(Oc3ccc(NC(=O)Nc4cc(C(C)(C)C)nn4-c4ccc(C)cc4)c4ccccc34)n2)cc1 [Example 17, 1-(3-(tert-butyl)-1-(p-tolyl)-1H-pyrazol-5-yl)-3-(4-((2-((4-methoxyphenyl)amino)pyrimidin-4-yl)oxy)naphthalen-1-yl)urea] | −ve (−ve and +ve indicate the value is below and above respectively, the no significant effect threshold defined as 30% inhibition at 1 μg/mL at the time point indicated) | −ve (−ve and +ve indicate the value is below and above respectively, the no significant effect threshold defined as 30% inhibition at 1 μg/mL at the time point indicated)
Cc1ccc(-n2nc(C(C)(C)C)cc2NC(=O)Nc2ccc(Oc3ccnc(Nc4ccc(Cl)cc4C)n3)c3ccccc23)cc1 [Example 18, 1-(3-(tert-butyl)-1-(p-tolyl)-1H-pyrazol-5-yl)-3-(4-((2-((4-chloro-2-methylphenyl)amino)pyrimidin-4-yl)oxy)naphthalen-1-yl)urea] | −ve (−ve and +ve indicate the value is below and above respectively, the no significant effect threshold defined as 30% inhibition at 1 μg/mL at the time point indicated) | −ve (−ve and +ve indicate the value is below and above respectively, the no significant effect threshold defined as 30% inhibition at 1 μg/mL at the time point indicated)
Cc1ccc(-n2nc(C(C)(C)C)cc2NC(=O)Nc2ccc(Oc3ccnc(Nc4ccccc4Cl)n3)c3ccccc23)cc1 [Example 19, 1-(3-(tert-butyl)-1-(p-tolyl)-1H-pyrazol-5-yl)-3-(4-((2-((2-chlorophenyl)amino)pyrimidin-4-yl)oxy)naphthalen-1-yl)urea] | −ve (−ve and +ve indicate the value is below and above respectively, the no significant effect threshold defined as 30% inhibition at 1 μg/mL at the time point indicated) | −ve (−ve and +ve indicate the value is below and above respectively, the no significant effect threshold defined as 30% inhibition at 1 μg/mL at the time point indicated)
Cc1ccc(-n2nc(C(C)(C)C)cc2NC(=O)Nc2ccc(Oc3ccnc(Nc4ccccc4C(C)C)n3)c3ccccc23)cc1 [Example 20, 1-(3-(tert-butyl)-1-(p-tolyl)-1H-pyrazol-5-yl)-3-(4-((2-((2-isopropylphenyl)amino)pyrimidin-4-yl)oxy)naphthalen-1-yl)urea] | −ve (−ve and +ve indicate the value is below and above respectively, the no significant effect threshold defined as 30% inhibition at 1 μg/mL at the time point indicated) | −ve (−ve and +ve indicate the value is below and above respectively, the no significant effect threshold defined as 30% inhibition at 1 μg/mL at the time point indicated)
Cc1ccc(-n2nc(C(C)(C)C)cc2NC(=O)Nc2ccc(Oc3ccnc(Nc4ccccc4C)n3)c3ccccc23)cc1 [Example 21, 1-(3-(tert-butyl)-1-(p-tolyl)-1H-pyrazol-5-yl)-3-(4-((2-(o-tolylamino)pyrimidin-4-yl)oxy)naphthalen-1-yl)urea] | −ve (−ve and +ve indicate the value is below and above respectively, the no significant effect threshold defined as 30% inhibition at 1 μg/mL at the time point indicated) | −ve (−ve and +ve indicate the value is below and above respectively, the no significant effect threshold defined as 30% inhibition at 1 μg/mL at the time point indicated)
CCOc1ccc(Nc2nccc(Oc3ccc(NC(=O)Nc4cc(C(C)(C)C)nn4-c4ccc(C)cc4)c4ccccc34)n2)cc1 [Example 22, 1-(3-(tert-butyl)-1-(p-tolyl)-1H-pyrazol-5-yl)-3-(4-((2-((4-ethoxyphenyl)amino)pyrimidin-4-yl)oxy)naphthalen-1-yl)urea] | −ve (−ve and +ve indicate the value is below and above respectively, the no significant effect threshold defined as 30% inhibition at 1 μg/mL at the time point indicated) | −ve (−ve and +ve indicate the value is below and above respectively, the no significant effect threshold defined as 30% inhibition at 1 μg/mL at the time point indicated)
Cc1ccc(-n2nc(C(C)(C)C)cc2NC(=O)Nc2ccc(Oc3ccnc(Nc4ccc(F)cc4)n3)c3ccccc23)cc1 [Example 23, 1-(3-(tert-butyl)-1-(p-tolyl)-1H-pyrazol-5-yl)-3-(4-((2-((4-fluorophenyl)amino)pyrimidin-4-yl)oxy)naphthalen-1-yl)urea] | −ve (−ve and +ve indicate the value is below and above respectively, the no significant effect threshold defined as 30% inhibition at 1 μg/mL at the time point indicated) | −ve (−ve and +ve indicate the value is below and above respectively, the no significant effect threshold defined as 30% inhibition at 1 μg/mL at the time point indicated)
Cc1ccc(-n2nc(C(C)(C)C)cc2NC(=O)Nc2ccc(Oc3ccnc(Nc4ccc(O)cc4C)n3)c3ccccc23)cc1 [Example 24, 1-(3-(tert-butyl)-1-(p-tolyl)-1H-pyrazol-5-yl)-3-(4-((2-((4-hydroxy-2-methylphenyl)amino)pyrimidin-4-yl)oxy)naphthalen-1-yl)urea] | −ve (−ve and +ve indicate the value is below and above respectively, the no significant effect threshold defined as 30% inhibition at 1 μg/mL at the time point indicated) | −ve (−ve and +ve indicate the value is below and above respectively, the no significant effect threshold defined as 30% inhibition at 1 μg/mL at the time point indicated)
COc1cc(Nc2nccc(Oc3ccc(NC(=O)Nc4cc(C(C)(C)C)nn4-c4ccc(C)cc4)c4ccccc34)n2)ccc1O [Example 25, 1-(3-(tert-butyl)-1-(p-tolyl)-1H-pyrazol-5-yl)-3-(4-((2-((4-hydroxy-3-methoxyphenyl)amino)pyrimidin-4-yl)oxy)naphthalen-1-yl)urea] | −ve (−ve and +ve indicate the value is below and above respectively, the no significant effect threshold defined as 30% inhibition at 1 μg/mL at the time point indicated) | −ve (−ve and +ve indicate the value is below and above respectively, the no significant effect threshold defined as 30% inhibition at 1 μg/mL at the time point indicated)
Cc1ccc(-n2nc(C(C)(C)C)cc2NC(=O)Nc2ccc(Oc3ccnc(Nc4ccc(C)c(O)c4)n3)c3ccccc23)cc1 [Example 26, 1-(3-(tert-butyl)-1-(p-tolyl)-1H-pyrazol-5-yl)-3-(4-((2-((3-hydroxy-4-methylphenyl)amino)pyrimidin-4-yl)oxy)naphthalen-1-yl)urea] | −ve (−ve and +ve indicate the value is below and above respectively, the no significant effect threshold defined as 30% inhibition at 1 μg/mL at the time point indicated) | −ve (−ve and +ve indicate the value is below and above respectively, the no significant effect threshold defined as 30% inhibition at 1 μg/mL at the time point indicated)
COc1ccc(Nc2nccc(Oc3ccc(NC(=O)Nc4cc(C(C)(C)C)nn4-c4ccc(C)cc4)c4ccccc34)n2)cc1OC [Example 27, 1-(3-(tert-butyl)-1-(p-tolyl)-1H-pyrazol-5-yl)-3-(4-((2-((3,4-dimethoxyphenyl)amino)pyrimidin-4-yl)oxy)naphthalen-1-yl)urea] | +ve (−ve and +ve indicate the value is below and above respectively, the no significant effect threshold defined as 30% inhibition at 1 μg/mL at the time point indicated) | −ve (−ve and +ve indicate the value is below and above respectively, the no significant effect threshold defined as 30% inhibition at 1 μg/mL at the time point indicated)
COc1ccc(Nc2nccc(Oc3ccc(NC(=O)Nc4cc(C(C)(C)C)nn4-c4ccc(C)cc4)c4ccccc34)n2)cc1Cl [Example 28, 1-(3-(tert-butyl)-1-(p-tolyl)-1H-pyrazol-5-yl)-3-(4-((2-((3-chloro-4-methoxyphenyl)amino)pyrimidin-4-yl)oxy)naphthalen-1-yl)urea] | −ve (−ve and +ve indicate the value is below and above respectively, the no significant effect threshold defined as 30% inhibition at 1 μg/mL at the time point indicated) | −ve (−ve and +ve indicate the value is below and above respectively, the no significant effect threshold defined as 30% inhibition at 1 μg/mL at the time point indicated)
Cc1ccc(-n2nc(C(C)(C)C)cc2NC(=O)Nc2ccc(Oc3ccnc(Nc4ccc(O)c(F)c4)n3)c3ccccc23)cc1 [Example 29, 1-(3-(tert-butyl)-1-(p-tolyl)-1H-pyrazol-5-yl)-3-(4-((2-((3-fluoro-4-hydroxyphenyl)amino)pyrimidin-4-yl)oxy)naphthalen-1-yl)urea] | +ve (−ve and +ve indicate the value is below and above respectively, the no significant effect threshold defined as 30% inhibition at 1 μg/mL at the time point indicated) | −ve (−ve and +ve indicate the value is below and above respectively, the no significant effect threshold defined as 30% inhibition at 1 μg/mL at the time point indicated)
Cc1ccc(-n2nc(C(C)(C)C)cc2NC(=O)Nc2ccc(Oc3ccnc(Nc4ccc(O)cc4F)n3)c3ccccc23)cc1 [Example 30, 1-(3-(tert-butyl)-1-(p-tolyl)-1H-pyrazol-5-yl)-3-(4-((2-((2-fluoro-4-hydroxyphenyl)amino)pyrimidin-4-yl)oxy)naphthalen-1-yl)urea] | −ve (−ve and +ve indicate the value is below and above respectively, the no significant effect threshold defined as 30% inhibition at 1 μg/mL at the time point indicated) | −ve (−ve and +ve indicate the value is below and above respectively, the no significant effect threshold defined as 30% inhibition at 1 μg/mL at the time point indicated)
